Laboratory results from BindingDB's records for doi:10.1016/s1074-5521(97)90073-9 (University of California Berkeley, 1997).

Molecular target: Cathepsin D (Homo sapiens, UniProt P07339)
Assay: High Through-Put Fluorescence Assay
Conditions: pH 3.7
From the text: A fluorometric high through-put assay for inhibitor towards human liver cathepsin D from Calbiochem.

Sequence of Cathepsin D (P07339 65-162 limits assumed): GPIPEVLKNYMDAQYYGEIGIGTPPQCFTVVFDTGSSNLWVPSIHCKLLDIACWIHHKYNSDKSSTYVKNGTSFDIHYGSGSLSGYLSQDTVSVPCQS
Sequence of Cathepsin D (P07339 169-412 limits assumed): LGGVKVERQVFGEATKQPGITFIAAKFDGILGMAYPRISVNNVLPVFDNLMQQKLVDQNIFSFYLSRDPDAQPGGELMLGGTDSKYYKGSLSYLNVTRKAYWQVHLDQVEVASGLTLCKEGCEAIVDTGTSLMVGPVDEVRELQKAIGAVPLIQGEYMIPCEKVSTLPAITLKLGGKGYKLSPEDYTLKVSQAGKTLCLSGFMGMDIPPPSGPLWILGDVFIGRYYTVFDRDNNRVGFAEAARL

| IC50 | Ki | SMILES |
| --- | --- | --- |
| 229 nM | 224 nM | Cc1ccc(CCN(CC(O)[C@@H](NC(=O)COc2cc(Cl)c(Cl)cc2Cl)c2ccccc2)C(=O)CCN2C(=O)c3ccccc3C2=O)cc1 (stereo partly specified) [UHD] |
| 18 nM | 14 nM | O=C(COc1ccc(Cl)c(Cl)c1)N[C@@H](c1ccccc1)C(O)CN(CCc1ccc(Cl)cc1Cl)C(=O)CCN1C(=O)c2ccccc2C1=O (stereo partly specified) [FHO] |
|  | 231 nM | O=C(CCn1c(=O)oc2ccccc21)N[C@@H](c1ccccc1)C(O)CN(CCc1ccc(Cl)cc1Cl)C(=O)CCN1C(=O)c2ccccc2C1=O (stereo partly specified) [FHA] |
|  | 356 nM | COc1cccc(CCN(CC(O)[C@@H](NC(=O)Cn2c(O)csc2=S)c2ccccc2)C(=O)NC2CCCCC2)c1 (stereo partly specified) [FBB] |
|  | 595 nM | CCCCCCC(=O)N(CCc1cccc(OC)c1)CC(O)[C@@H](NC(=O)Cn1c(O)csc1=S)c1ccccc1 (stereo partly specified) [FDB] |

Second part, the molecule before the results:

| SMILES | IC50 | Ki |
| --- | --- | --- |
| COc1cc(Br)c(C(=O)N[C@@H](c2ccccc2)C(O)CN(CCc2ccc3c(c2)OCO3)C(=O)CCN2C(=O)c3ccccc3C2=O)cc1OC (stereo partly specified) [EHS] | 64 nM | 59 nM |
| O=C(COc1ccc(Cl)cc1Cl)N[C@@H](c1ccccc1)C(O)CN(CCc1ccc2c(c1)OCO2)C(=O)CCN1C(=O)c2ccccc2C1=O (stereo partly specified) [EHM] | 14 nM | 9 nM |
| O=C(CCn1c(=O)oc2ccccc21)N[C@@H](c1ccccc1)C(O)CN(CCc1ccc2c(c1)OCO2)C(=O)CCN1C(=O)c2ccccc2C1=O (stereo partly specified) [EHA] |  | 131 nM |
| O=C(COc1ccc(Cl)c(Cl)c1)N[C@@H](c1ccccc1)C(O)CN(CCc1ccc2c(c1)OCO2)C(=O)CCN1C(=O)c2ccccc2C1=O (stereo partly specified) [EHO] | 19 nM | 15 nM |
| O=C(CCn1c(=O)oc2ccccc21)N[C@@H](c1ccccc1)C(O)CN(CCc1ccc2c(c1)OCO2)C(=O)CCc1ccc(Cl)c(Cl)c1 (stereo partly specified) [EFA] |  | 171 nM |
| O=C(COc1cccc(Cl)c1)N[C@@H](c1ccccc1)C(O)CN(CCc1ccc2c(c1)OCO2)C(=O)CCN1C(=O)c2ccccc2C1=O (stereo partly specified) [EHR] | 20 nM | 15 nM |
| COc1ccc(C(=O)N[C@@H](c2ccccc2)C(O)CN(CCc2ccc3c(c2)OCO3)C(=O)CCN2C(=O)c3ccccc3C2=O)c(Cl)c1OC (stereo partly specified) [EHJ] |  | 111 nM |
| O=C(COc1cc(Cl)c(Cl)cc1Cl)N[C@@H](c1ccccc1)[C@H](O)CN(CCc1ccc2c(c1)OCO2)C(=O)CCN1C(=O)c2ccccc2C1=O [(R)-EHD] |  | > 5000 nM |
| O=C(COc1ccc(Cl)c(Cl)c1)N[C@@H](c1ccccc1)[C@H](O)CN(CCc1ccc2c(c1)OCO2)C(=O)CCN1C(=O)c2ccccc2C1=O [(R)-EHO] | > 5000 nM |  |
| O=C(COc1cc(Cl)c(Cl)cc1Cl)N[C@@H](c1ccccc1)C(O)CN(CCc1ccc2c(c1)OCO2)C(=O)CCN1C(=O)c2ccccc2C1=O (stereo partly specified) [EHD] |  | 73 nM |
